Patent US10457891B2, “Organic compounds” (Givaudan, S.A., priority 2013, dated 2019)
Like-named read-outs stand apart in the source and are kept apart here.

What was measured:
[1] = system: hepatocytes from male rats (Sprague Dawley); assay: In vitro metabolism study in rat hepatocytes in suspension, GC-MS; conditions: for Residual concentration: male, Sprague Dawley, rat, 4 h, 100 μM
Experimental: In order to study in vitro metabolism in rat hepatocytes, Lilial™ and compounds of the present invention may be incubated in the presence of rat hepatocytes in suspension. Reduction in the concentration of Lilial™ and the compounds of the present invention and formation of any of the corresponding benzoic acid derivatives may be analysed by GC-MS.
Cryopreserved hepatocytes from male rats (Sprague Dawley; Lifetechnologies) were defrozen, washed in Cyropreserved Hepatocytes Recovery Medium (CHRM; Lifetechnologies) and suspended in Williams E Medium (WEM; Lifetechnologies). Lilial™, or the compounds of the present invention (final concentration: 100 μM) were added to the cells (1×10^6 viable cells/ml) and suspensions were incubated up to 4 hours at 37° C. on a shaker in duplicate. Metabolism of testosterone was monitored as positive control. Decrease of the test compounds and formation of the corresponding benzoic acid derivative was determined by GC-MS analysis of methyl esters formed after derivatisation with trimethylsilyl diazomethane (Sigma-Aldrich) in methanol. The test compounds react with diazomethane yielding a methyl ketone which was used for the quantification of Lilial™ and the compound of formula (I). Metabolism was stopped with ice cold 1 M HCl, samples were extracted with tert-butyl methyl ether (MTBE) and analysed by GC-MS. Incubations containing testosterone as control were also stopped with ice cold 1 M HCl, centrifuged to separate the cells, filtrated and the decrease of testosterone analysed by LC-MS.

primates = conditions: cited from earlier work
[2] = system: reproductive organs of male rats; conditions: rat, in vivo; cited from earlier work
mice = conditions: mouse, in vivo; cited from earlier work
[3] = system: reproductive organs of dogs; conditions: dog, in vivo; cited from earlier work
guinea-pigs = conditions: guinea pig, in vivo; cited from earlier work

Compound | Residual concentration [1] | further results
Cc1cc(CC(C)C)ccc1CCC=O | 0 µM | –
Cc1cc(CCC(C)C)ccc1CCC=O | 0 µM | –
Cc1cc(CCCC(C)C)ccc1CCC=O | 0 µM | –
Cc1cc(CC(C)C)cc(C)c1CCC=O | 0 µM | –
Cc1ccc(CC(C)C)cc1CC(C)C=O (centres unmarked) | 0 µM | –
Cc1ccc(CCCC(C)C)cc1CCC=O | 2.4 µM | –
CC(C=O)Cc1ccc(C(C)(C)C)cc1 (centres unmarked) [Lilial™, 3-(4-tert-butylphenyl)-2-methylpropanal] | 0 µM | Toxic effects (primates): No effects; Decrease / metabolism of compound in rat hepatocytes [1]: metabolised rapidly; Toxic effects on reproductive organs [2]: toxic effects on the reproductive organs; Toxic effects (mice): No effects; Toxic effects on reproductive organs [3]: toxic effects on the reproductive organs; Toxic effects (guinea-pigs): No effects
C[C@]12CC[C@H]3[C@@H](CCC4=CC(=O)CC[C@@]43C)[C@@H]1CC[C@@H]2O [testosterone] | – | Decrease / metabolism of compound in rat hepatocytes ([1]; rat hepatocytes, up to 4 hours at 37° C.): rapid decrease
